One experiment has as its system S. aureus ATCC 29213. Kind of experiment: MIC determination. The experiment is classed as cell-based, Staphylococcus aureus. The following applies: for antibacterial activity in words (SAR, ring A derivatives): S. aureus ATCC 29213, compounds of Schemes 3-4.
The subject of another experiment is E. faecium NCTC 7171. As to the kind of experiment: MIC determination. Type of experiment: cell-based, Enterococcus faecium. The following applies: Enterococcus faecium.
Where [1] appears, read: Staphylococcus aureus, ATCC29213, Table 3.1 and SAR text, compounds of Schemes 2-4, read-out: S. aureus ATCC 29213 MIC.
[2] abbreviates: NCTC7171, Table 3.1, compounds of Schemes 2-4, read-out: E. faecium NCTC 7171 MIC.
The mark [3] stands for this setting: S. aureus ATCC29213, second numbering, compounds of Scheme 6.
Setting [4] is: Staphylococcus aureus, ATCC29213, read-out: S. aureus ATCC 29213 MIC.
The mark [5] stands for this setting: NCTC7171, read-out: E. faecium NCTC 7171 MIC.

Structures are written as SMILES. In brackets after ≈: the same amount, converted by molar mass. Where two headings read alike, the source gives them in different places.

The term MIC denotes the lowest concentration that inhibits growth of the organism. `Fc1ccc(Oc2ccc(-c3noc(-c4cc[nH]n4)n3)cc2)cc1` [Compound 102c]: the MIC with S. aureus ATCC 29213 (setting [1]) is above 128 mg/L; with E. faecium NCTC 7171 (setting [2]) it was 32 mg/L (≈ 99.3 µM).

For `Nc1cc(-c2nc(-c3ccc(Oc4ccc(F)cc4)cc3)no2)cnc1O` [Compound 121c], the MIC was above 128 mg/L in the experiment with S. aureus ATCC 29213 (setting [1]) and 128 mg/L (≈ 351 µM) in the experiment on E. faecium NCTC 7171 (setting [2]).

As for `Nc1cncc(-c2nc(-c3ccc(Oc4ccc(F)cc4)cc3)no2)c1` [Compound 122c], the results for the MIC in the experiment on S. aureus ATCC 29213 (setting [1]) and in the experiment on E. faecium NCTC 7171 (setting [2]) were above 128 mg/L and 128 mg/L (≈ 367 µM), respectively.

Take `FC(F)(F)c1ccc(Oc2ccc(-c3noc(-c4n[nH]cc4I)n3)cc2)cc1` [Compound 62b]: the minimum inhibitory concentration (MIC) with S. aureus ATCC 29213 (setting [1]) is 2 mg/L (≈ 4.01 µM); with E. faecium NCTC 7171 (setting [2]), 32 mg/L (≈ 64.2 µM).

As to `COc1cc(-c2nc(-c3ccc(Oc4ccccc4)cc3)no2)ccc1N` [Compound 94a], the MIC in the experiment on S. aureus ATCC 29213 (setting [1]) and with E. faecium NCTC 7171 (setting [2]) was above 128 mg/L in each case.

For the molecule `Clc1c[nH]nc1-c1nc(-c2ccc(Oc3ccccc3)cc2)no1` [Compound 60a], the MIC in the experiment on S. aureus ATCC 29213 (setting [3]) was 8 mg/L (≈ 23.6 µM); with S. aureus ATCC 29213 (setting [4]), 1 mg/L (≈ 2.95 µM); with E. faecium NCTC 7171 (setting [5]) it was above 128 mg/L.

For `Brc1c[nH]nc1-c1nc(-c2ccc(Oc3ccccc3)cc2)no1` [61a], the MIC in the experiment with S. aureus ATCC 29213 (setting [1]) came out at 1 mg/L (≈ 2.61 µM); in the experiment with E. faecium NCTC 7171 (setting [2]), 16 mg/L (≈ 41.8 µM).

On to `Oc1c(F)cc(-c2nc(-c3ccc(Oc4ccc(C(F)(F)F)cc4)cc3)no2)cc1F` [Compound 73b], for which the MIC in the experiment on S. aureus ATCC 29213 (setting [1]) and in the experiment on E. faecium NCTC 7171 (setting [2]) was 4 mg/L (≈ 9.21 µM) each time.

Consider `Fc1ccc(Oc2ccc(-c3noc(-c4cnc[nH]4)n3)cc2)cc1` [Compound 76c], for which the “antibacterial activity in words (SAR, ring A derivatives)” value in the experiment with S. aureus ATCC 29213 is recorded as “no activity”. Besides, the MIC in the experiment with S. aureus ATCC 29213 (setting [1]) was above 128 mg/L; with E. faecium NCTC 7171 (setting [2]) it was 128 mg/L (≈ 397 µM).

For `Oc1cc(-c2nc(-c3ccc(Oc4ccccc4)cc3)no2)ccc1I` [Compound 96a], the “antibacterial activity in words (SAR, ring A derivatives)” value in the experiment with S. aureus ATCC 29213 is “failed to show significant activity”. For the same molecule, the MIC with S. aureus ATCC 29213 (setting [1]) is above 128 mg/L; in the experiment with E. faecium NCTC 7171 (setting [2]), 32 mg/L (≈ 70.1 µM).

With `[O-][n+]1ccc(-c2nc(-c3ccc(Oc4ccccc4)cc3)no2)cc1` [Compound 115a], in the experiment with S. aureus ATCC 29213, the “antibacterial activity in words (SAR, ring A derivatives)” value was “No activity”. Also, the minimum inhibitory concentration (MIC) was above 128 mg/L with S. aureus ATCC 29213 (setting [1]) and 64 mg/L (≈ 193 µM) in the experiment with E. faecium NCTC 7171 (setting [2]).

For `COc1ccc(-c2nc(-c3ccc(Oc4ccc(F)cc4)cc3)no2)cc1[N+](=O)[O-]` [Compound 99c], the MIC in the experiment on S. aureus ATCC 29213 (setting [1]) and in the experiment with E. faecium NCTC 7171 (setting [2]) was above 128 mg/L each time.

In the case of `c1ccc(Oc2ccc(-c3noc(-c4ccc5[nH]ccc5c4)n3)cc2)cc1` [Compound 75a], the MIC in the experiment on S. aureus ATCC 29213 (setting [1]) and in the experiment on E. faecium NCTC 7171 (setting [2]) was 2 mg/L (≈ 5.66 µM) each time.

With `CC(C)Nc1c[nH]nc1-c1nc(-c2ccc(Oc3ccccc3)cc2)no1` [Compound 65a], the “antibacterial activity in words (SAR, C/D ring derivatives)” value in the experiment on S. aureus ATCC 29213 (setting [3]) is recorded as “did not alter the activity”. The values for the MIC with S. aureus ATCC 29213 (setting [4]) and in the experiment on E. faecium NCTC 7171 (setting [5]) were 0.5 mg/L (≈ 1.38 µM) and above 128 mg/L, respectively.

On to `NCCCCc1nc(-c2ccc(Oc3ccccc3)cc2)no1` [Compound 137a], for which the values for the MIC with S. aureus ATCC 29213 (setting [1]) and with E. faecium NCTC 7171 (setting [2]) were at least 32 mg/L and 32 mg/L (≈ 103 µM), respectively.

`COc1ccc(-c2nc(-c3ccc(Oc4ccccc4)cc3)no2)cc1[N+](=O)[O-]` [Compound 99a]: the results for the MIC with S. aureus ATCC 29213 (setting [1]) and in the experiment on E. faecium NCTC 7171 (setting [2]) were above 128 mg/L and 128 mg/L (≈ 329 µM), respectively.

For the molecule `CS(=O)(=O)Nc1ccc(-c2nc(-c3ccc(Oc4ccc(C(F)(F)F)cc4)cc3)no2)cc1` [Compound 86b], the results for the MIC in the experiment with S. aureus ATCC 29213 (setting [1]) and with E. faecium NCTC 7171 (setting [2]) were above 128 mg/L and 32 mg/L (≈ 67.3 µM), respectively.

As for `NS(=O)(=O)c1ccc(-c2nc(-c3ccc(Oc4ccc(C(F)(F)F)cc4)cc3)no2)cc1` [Compound 87b], the minimum inhibitory concentration (MIC) is above 128 mg/L with S. aureus ATCC 29213 (setting [1]) and 128 mg/L (≈ 277 µM) with E. faecium NCTC 7171 (setting [2]).

With `Nc1cc(-c2nc(-c3ccc(Oc4ccc(C(F)(F)F)cc4)cc3)no2)cnc1O` [Compound 121b], the MIC in the experiment on S. aureus ATCC 29213 (setting [1]) is above 128 mg/L; in the experiment on E. faecium NCTC 7171 (setting [2]) it was 64 mg/L (≈ 154 µM).

As to `c1ccc(Oc2ccc(-c3noc(-c4ccc5[nH]ncc5c4)n3)cc2)cc1` [Compound 124a], the “antibacterial activity in words (SAR, ring A derivatives)” value in the experiment on S. aureus ATCC 29213 is “No activity”. Moreover, the MIC is above 128 mg/L in the experiment with S. aureus ATCC 29213 (setting [1]) and 64 mg/L (≈ 181 µM) in the experiment on E. faecium NCTC 7171 (setting [2]).

As to `COc1ccc(-c2nc(-c3ccc(Oc4ccc(C(F)(F)F)cc4)cc3)no2)cc1[N+](=O)[O-]` [Compound 99b], the MIC in the experiment on S. aureus ATCC 29213 (setting [1]) and with E. faecium NCTC 7171 (setting [2]) was above 128 mg/L each time.

Turning to `O=[N+]([O-])c1c[nH]c(-c2nc(-c3ccc(Oc4ccc(F)cc4)cc3)no2)c1` [Compound 78c], in the experiment on S. aureus ATCC 29213, the “antibacterial activity in words (SAR, ring A derivatives)” value is recorded as “No activity”. Further, the MIC with S. aureus ATCC 29213 (setting [1]) was above 128 mg/L; in the experiment with E. faecium NCTC 7171 (setting [2]), 128 mg/L (≈ 349 µM).

`Nc1ccc(-c2nc(-c3ccc(Oc4ccc(C(F)(F)F)cc4)cc3)no2)cc1` [Compound 58b]: the MIC worked out at 1 mg/L (≈ 2.52 µM) in the experiment on S. aureus ATCC 29213 (setting [1]) and 2 mg/L (≈ 5.03 µM) in the experiment with E. faecium NCTC 7171 (setting [2]).

As for `Oc1ccc(-c2nc(-c3ccc(Oc4ccc(F)cc4)cc3)no2)cc1` [Compound 57c], the MIC in the experiment with S. aureus ATCC 29213 (setting [1]) and with E. faecium NCTC 7171 (setting [2]) was 1 mg/L (≈ 2.87 µM) each time.

As for `Fc1ccc(Oc2ccc(-c3noc(-c4n[nH]c5ccccc45)n3)cc2)cc1` [Compound 123c], the MIC was above 128 mg/L in the experiment with S. aureus ATCC 29213 (setting [1]) and 16 mg/L (≈ 43 µM) in the experiment with E. faecium NCTC 7171 (setting [2]).

Consider `FC(F)(F)c1ccc(Oc2ccc(-c3noc(-c4n[nH]c5ccccc45)n3)cc2)cc1` [Compound 123b], for which the MIC in the experiment on S. aureus ATCC 29213 (setting [1]) and in the experiment on E. faecium NCTC 7171 (setting [2]) was above 128 mg/L in each case.

For `Nc1c[nH]nc1-c1nc(-c2ccc(Oc3ccc(C(F)(F)F)cc3)cc2)no1` [Compound 64b, 3-(3-(4-(4-(Trifluoromethyl)phenoxy)phenyl)-1,2,4-oxadiazol-5-yl)-1H-pyrazol-4-amine], the minimal inhibitory concentration (MIC) with S. aureus ATCC 29213 (setting [1]) was determined as 4 mg/L (≈ 10.3 µM); in the experiment on E. faecium NCTC 7171 (setting [2]), 16 mg/L (≈ 41.3 µM).

On to `NS(=O)(=O)c1ccc(-c2nc(-c3ccc(Oc4ccc(F)cc4)cc3)no2)cc1` [Compound 87c], for which the MIC in the experiment on S. aureus ATCC 29213 (setting [1]) and with E. faecium NCTC 7171 (setting [2]) was above 128 mg/L each time.

Turning to `Oc1ccc(-c2nc(-c3ccc(Oc4ccccc4)cc3)no2)cc1` [Compound 57a], the MIC in the experiment on S. aureus ATCC 29213 (setting [1]) and with E. faecium NCTC 7171 (setting [2]) was 1 mg/L (≈ 3.03 µM) throughout.

These data come from US10662164B2, “Non-beta lactam antibiotics” (University of Notre Dame du Lac, priority 2014, dated 2020).
